From patent US20060205819A1, “Methods of treatment inflammatory bowel with lxr agonists” (priority 2003, published 2006)
Read-outs that look alike come from different tables or passages of the source. Marks after values point to notes of the source that are not given here.

Tests used:
[1] = test system: DSS-induced colitis; assay: DSS-induced colitis in mice, disease activity index (DAI) AUC; assay type: in vivo, BALB/c mice; settings: for severity of DSS-induced colitis: p.o.; for AUC (0-12 day) / AUC (3-7 day) / AUC (7-10 day) / AUC (10-12 day): DAI curve AUC, 3% DSS mice, mean +/- SE; for inhibition at 3 mg/kg / inhibition at 10 mg/kg / inhibition at 30 mg/kg: Mus musculus, po, vs DSS + vehicle; for inhibition at 3 mg/kg: 3 mg/kg p.o. b.i.d.; for inhibition at 10 mg/kg: 10 mg/kg p.o. b.i.d.; for inhibition at 30 mg/kg: 30 mg/kg p.o. b.i.d.
Procedure: Female, 10-week-old BALB/c mice (Charles River Japan) were used in this study. Colitis was induced by providing drinking water containing 3% dextran sulfate sodium (DSS, ICN Biomedicals Inc., M.W.=36,000-50,000) for 5 days. The administration of DSS was discontinued on day 5, and mice were given tap water alone for 7 days until on day 12.
The disease activity index (DAI) was determined in all animals, by scoring body weight, stool consistency and rectal bleeding as described by Murthy, S. N. S. (Digestive Diseases and Sciences, 38(9) p. 1722-1734(1993)). Severity of colitis was evaluated by area under the curve (AUC) calculated based on DAI curve ranged from day 3 to day 7 (AUC (3-7 day)), from day 7 to day 10 (AUC (7-10 day)), from day 10 to day 12 (AUC (10-12 day)) and from day 0 to day 12 (AUC (0-12 day)).
Ten mice were used in each group. Compound IIa and Compound Ia were suspended in 0.5% methylcellulose (MC) solution. Compound IIa 3 or 10 or 30 mg/kg or its vehicle (0.5% MC solution) was administered orally twice a day for 12 days from day 0. Compound Ia at 50 mg/kg was administered orally once a day for 12 days from day 0. The experimental groups were set up as follows:
• 3% DSS+vehicle (0.5% MC solution) 3% DSS+Compound IIa (3 mg/kg) 3% DSS+Compound IIa (10 mg/kg) 3% DSS+Compound IIa (30 mg/kg) 3% DSS+Compound Ia (50 mg/kg) * Mice which received tap water without DSS.

[2] = molecular target: T1, LXRβ protein (Homo sapiens, UniProt P55055); assay: LXRβ / SRC-1 peptide fluorescence assay (streptavidin-APC / Europium); assay type: biochemical; settings: 1 μM; over a background reading of 10000 fluorescence units
T1 sequence (P55055 1-460): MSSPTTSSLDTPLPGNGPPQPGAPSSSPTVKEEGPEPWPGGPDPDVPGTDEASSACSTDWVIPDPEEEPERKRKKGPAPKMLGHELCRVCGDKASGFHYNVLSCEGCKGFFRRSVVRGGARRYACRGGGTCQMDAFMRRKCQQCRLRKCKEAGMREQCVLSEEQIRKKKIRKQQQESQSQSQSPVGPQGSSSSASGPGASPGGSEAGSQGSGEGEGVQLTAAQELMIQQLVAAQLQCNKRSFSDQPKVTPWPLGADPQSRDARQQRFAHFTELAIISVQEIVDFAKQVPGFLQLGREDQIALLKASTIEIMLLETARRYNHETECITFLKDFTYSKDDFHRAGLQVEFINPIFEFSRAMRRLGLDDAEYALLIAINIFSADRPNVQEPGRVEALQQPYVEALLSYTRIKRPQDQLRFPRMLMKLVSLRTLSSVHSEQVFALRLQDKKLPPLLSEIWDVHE
Procedure: Other LXR agonists may be identified by assays such as those described in the above referenced patent applications, for example, the assays described in Examples 1 and 2 of PCT/US01/27622. Biotinylated LXRβ protein was incubated for 20-25 minutes at a concentration of 25 nM in assay buffer (50 mM KCl, 50 mM Tris-pH8, 0.1 mg/ml FAF-BSA, 10 mM DTT) with equimolar amounts of streptavidin-AlloPhycoCyanin (APC, Molecular Probes). At the same time, the biotinylated peptide comprising amino acids 675-699 of SRC-1 ([…]-CONH2) (SEQ ID NO: 5) at a concentration of 25 nM was incubated in assay buffer with a […] of streptavidin-labelled Europium (Wallac) for 20-25 minutes. After the initial incubations are completed, a 10 molar excess (250 nM) of cold biotin was added to each of the solutions to block the unattached streptavidin reagents. After 20 min at room temp, the solutions were mixed yielding a concentration of 12.5 nM for the dye-labelled LXRβ protein and SRC-1 peptide.
80 μL of the protein/peptide mixture was added to each well of an assay plate containing 20 μL of test compound. […] The plates were incubated at room temp in the dark for 4-12 hours and then counted on a Wallac Victor fluorescent plate reader. In this assay 1 μM 24(S), 25-epoxycholesterol gave a reading of 20000 fluorescence units over a background reading of 10000 fluorescence units. […]

[3] = read-out: Inhibition (%) of AUC (0-12 day)
[4] = read-out: Inhibition (%) of AUC (3-7 day)
[5] = read-out: Inhibition (%) of AUC (7-10 day)
[6] = read-out: Inhibition (%) of AUC (10-12 day)

## O=C(O)Cc1cccc(OCCCN(Cc2cccc(C(F)(F)F)c2Cl)CC(c2ccccc2)c2ccccc2)c1 [Compound IIa, 2-(3-{3-[[2-Chloro-3-(trifluoromethyl)benzyl](2,2-diphenylethyl)amino]propoxy}-phenyl)acetic acid]
[1]; 3, 10 and 30 mg/kg, b.i.d., significantly lower AUC compared with vehicle-treated DSS-fed mice
  severity of DSS-induced colitis: suppressed the severity of DSS-induced colitis
[1]; 3 mg/kg p.o. b.i.d. 12 days
  AUC (0-12 day): 14.02 +/− 1.56
  AUC (3-7 day): 4.93 +/− 0.38**
  AUC (7-10 day): 5.05 +/− 0.75
  AUC (10-12 day): 2.73 +/− 0.55
[1]; 10 mg/kg p.o. b.i.d. 12 days
  AUC (0-12 day): 11.25 +/− 1.42**
  AUC (3-7 day): 4.60 +/− 0.40**
  AUC (7-10 day): 3.70 +/− 0.62*
  AUC (10-12 day): 1.70 +/− 0.37
[1]; 30 mg/kg p.o. b.i.d. 12 days
  AUC (0-12 day): 11.70 +/− 1.32*
  AUC (3-7 day): 4.70 +/− 0.36**
  AUC (7-10 day): 3.94 +/− 0.62
  AUC (10-12 day): 1.67 +/− 0.44
[1]; [3]
  inhibition at 3 mg/kg: 22%
  inhibition at 10 mg/kg: 37.4%
  inhibition at 30 mg/kg: 34.9%
[1]; [4]
  inhibition at 3 mg/kg: 28.2%
  inhibition at 10 mg/kg: 33%
  inhibition at 30 mg/kg: 31.6%
[1]; [5]
  inhibition at 3 mg/kg: 20.5%
  inhibition at 10 mg/kg: 41.7%
  inhibition at 30 mg/kg: 38%
[1]; [6]
  inhibition at 3 mg/kg: 14.7%
  inhibition at 10 mg/kg: 46.9%
  inhibition at 30 mg/kg: 47.8%

## C[C@H](CC[C@@H]1OC1(C)C)[C@H]1CC[C@H]2[C@@H]3CC=C4C[C@@H](O)CC[C@]4(C)[C@H]3CC[C@]12C [24(S), 25-epoxycholesterol]
[2]
  reading: 20000 fluorescence units

## O=S(=O)(c1ccccc1)N(CC(F)(F)F)c1ccc(C(O)(C(F)(F)F)C(F)(F)F)cc1 [Compound Ia]
[1]; 50 mg/kg, q.d., significant lower AUC (3-7 day) and AUC (0-12 day) compared with vehicle-treated DSS-fed mice
  severity of DSS-induced colitis: inhibited the severity of DSS-induced colitis
[1]; 50 mg/kg p.o. q.d. 12 days
  AUC (0-12 day): 12.33 +/− 1.40*
  AUC (3-7 day): 4.80 +/− 0.38**
  AUC (7-10 day): 4.25 +/− 0.72
  AUC (10-12 day): 1.98 +/− 0.45
